Here are results for 3 molecules from patent US10413535B2, “Pharmaceutical compositions comprising an integrin ALPHA4 antagonist for use in treating ocular inflammatory conditions” (AXEROVISION, INC., priority 2015, dated 2019).

Experiment [1] relates to cells of draining cervical lymph nodes. As to the kind of experiment: Flow cytometry of draining cervical lymph nodes, desiccating stress 1 day. It counts as in vivo, mouse. Particulars: 1 day DS. On the procedure:
(§1) Female C57BL/6 mice, aged 6 to 8 weeks, were subjected to DS for 5 days (DS5) as described previously (de Paiva et al., 2006b; Niederkorn et al., 2006). Topical bilateral treatment with 1 eye drop per eye (2 μL volume) or subcutaneous injection (4 μL volume), 2 times per day, was initiated on day 1 concurrently with DS and continued through day 4. Treatment with the compound of formula I or dexamethasone phosphate 0.1% was compared to correspondingly treated vehicle controls. Mice were randomized to receive one of the test articles. Control mice were kept in a non-stressed (NS) environment maintained at 50-75% relative humidity without exposure to airflow or scopolamine and were not treated with test or control article. Treatment effects were assessed on corneal staining with Oregon Green Dextran (OGD); expression of inflammatory markers in ocular surface tissues by real time PCR; cell population analysis in draining cervical lymph nodes by FACS analysis; conjunctival T cell infiltration by immunohistochemistry.
Cervical draining lymph nodes (CLN) were surgically excised, placed in a round culture plate with ˜8 mL of complete RPMI media and smashed between two frosted slides.
Single-cell suspensions of CLN from C57BL/6 mice, treated under DS conditions for 1 day, were prepared, centrifuged and sequentially filtered, as previously described (de Paiva et al., 2009a). Subsequently 1.0 mL of ACT solution was added for 30 seconds followed by 2.0 mL of complete RPMI. The cells were once again centrifuged and the supernatant aspirated. Cells were then re-suspended in 2.0 mL of complete RPMI and prepared for counting. Ten μL of Trypan Blue were used for counting and the cells were divided in tubes at 1×10^6 cells/mL. Subsequently, the cells were incubated on ice in 20 μL unconjugated anti-mouse CD16/CD32 (BD Pharmingen, San Diego, Calif.) followed by 80 μL of directly conjugated primary antibody or isotype. Finally the samples were washed with 1 mL PBS/1% FBS, centrifuged and re-suspend in 0.3 mL PBS/1% FBS containing 1:1000 of PI. The samples were stored at 4° C. until the analysis was performed with an A BD LSRII Benchtop cytometer. The data was analysed using BD Diva Software (BD Pharmingen) and FlowJo (TreeStar Inc).
Due to skewed distribution of OGD data, the analysis was done on the log 10 scale to make the data more normally distributed. Log 10 OGD data was averaged across two observers and the left and right eyes. The mixed effects ANOVA model included treatment group as a fixed effect and week as a random effect. 95% and 99% confidence intervals were constructed for the disease (5 day DS vs untreated group kept in separate vivarium) and compound treatment effects (treatment vs vehicle). As these comparisons were all pre-planned (comparing each treatment to its vehicle group), no adjustment was made for multiplicity. Log 10 scale treatment effect estimates and confidence limits were converted back to the original OGD scale, thus representing the estimate for the ratio of group geometric means and their confidence limits. For gene expression analysis, an unpaired T test was performed to compare drug and vehicle treatment. For flow cytometry analysis, a 2-way ANOVA with fixed treatment and random experiment effects was employed to test the treatment differences. The analysis was followed by Dunnett's multiple comparison procedure to compare each of the treatment groups with the vehicle group. T cell density was calculated for each section and averaged across sections for each animal. As the distribution of average cell density data was non-normal, it was analyzed by using non-parametric methods (Kruskal-Wallis procedure, followed by Dunn's multiple comparisons technique).
The draining CLN are an integral part of the immune cycle in DED (Pflugfelder et al., 2008; Schaumburg et al., 2011). […]

Experiment [2] deals with C57BL/6 mice subjected to desiccating stress. As to the kind of experiment: Corneal OGD staining in murine desiccating stress model. Particulars: topical bilateral 2 times per day, 5 days DS, vs vehicle (GW559090 1-30 mg/mL; Dex 0.1%). It counts as in vivo, mouse. On the procedure: as §1
On the morning of the 5th day, mice received one s.c. dose of scopolamine. Two hours later corneal staining was assessed using Oregon Green Dextran (OGD-488), which is a conjugated fluorescent dye of a 70 kDa molecular size (Invitrogen-Molecular Probes) as previously described (de Paiva et al., 2006b). The procedure consisted of instillation of 0.5 μL of OGD on the cornea using a glass capillary pipette, 1 minute before euthanasia. Mice were euthanized by inhalation of isoflurane gas followed by cervical dislocation. Eyes were then rinsed with 2 mL of BSS. Excess liquid was carefully blotted from the ocular surface with filter papers without touching the cornea. Digital pictures of both eyes were taken under 470 nm excitation and 488 nm emission wave lengths using a Nikon SMZ-1500 stereo microscope, with an exposure time of 2 seconds. Both eyes from each animal were evaluated; the right eye always first followed by the left eye. The mean intensity in the central cornea was evaluated from digital images using NIS Elements (version 3.0) by placing a fixed region of interest (a 2-mm diameter circle) on the central cornea. The mean intensity of the fluorescence was read by the software and stored in a database (Excel, Microsoft). This fluorescence measurement in the central ring was done independently by 2 masked observers, for each mouse eye. By the conclusion of the experiment, results were averaged from both observers using all data collected during all study weeks (Excel, Microsoft). Results are presented as geometric mean±95% confidence interval of gray levels.
Due to skewed distribution of OGD data, the analysis was done on the log 10 scale to make the data more normally distributed. Log 10 OGD data was averaged across two observers and the left and right eyes. The mixed effects ANOVA model included treatment group as a fixed effect and week as a random effect. 95% and 99% confidence intervals were constructed for the disease (5 day DS vs untreated group kept in separate vivarium) and compound treatment effects (treatment vs vehicle). As these comparisons were all pre-planned (comparing each treatment to its vehicle group), no adjustment was made for multiplicity. […] T cell density was calculated for each section and averaged across sections for each animal. […]

A further experiment relates to dry eye patients. Particulars: delivered topically; cited from earlier work.
Experiment [3] has as its system multiple sclerosis and Crohn's disease. Particulars: in vivo; cited from earlier work.
Where [4] appears, read: topical treatment, vs vehicle (GW559090 30 mg/mL, 60 μg per eye; Dex 0.1%), listed as dexamethasone.

For the molecule `C[C@@H]1C[C@H]2[C@@H]3CCC4=CC(=O)C=C[C@]4(C)[C@@]3(F)[C@@H](O)C[C@]2(C)[C@@]1(O)C(=O)COP(=O)(O)O` [Dex, Dexamethasone phosphate, reference compound], the “CD4+ and CD8+ T cells in draining lymph nodes” value in experiment [1] is reported as “nor did treatment with the compound of formula I or dexamethasone decrease the number of T cells”. Moreover, the “CD11c+ dendritic cells in draining cervical lymph nodes” value in experiment [1] (setting [4]) was “no significant effect”; in experiment [1] (topical treatment, vs vehicle (GW559090 30 mg/mL, 60 μg per eye; Dex 0.1%), listed as dexamethasone phosphate) it was “Neither systemic treatment with the compound of formula I nor topical treatment with dexamethasone phosphate produced the same effect”. The “CD11c+/MHC II+ dendritic cells in draining cervical lymph nodes” value in experiment [1] (setting [4]) is recorded as “no significant effect”. Further, the entries for the “OGD intensity score (corneal staining / corneal barrier disruption)” value in experiment [2] and in experiment [2] (listed as dexamethasone) were “significantly improved” and “decreased”, respectively.

On to `CS(=O)(=O)c1cccc(C[C@H](NC(=O)c2c(Cl)cc3c(c2Cl)CCN(C(=O)c2ccc4ccoc4c2)C3)C(=O)O)c1` [Lifitegrast, (2S)-2-[[2-(1-benzofuran-6-carbonyl)-5,7-dichloro-3,4-dihydro-1H-isoquinoline-6-carbonyl]amino]-3-(3-methylsulfonylphenyl)propanoic acid], for which, in the experiment on dry eye patients, the Corneal staining result is reported as “reduce” and the Symptoms result is “improve”.

As to “Natalizumab: an antibody directed against the integrin α4 subunit”, the “Inflammation and clinical outcomes” value in experiment [3] was “profoundly inhibit inflammation and improve clinical outcomes”.
